This passage reports inhibition results from patent US20090253669A1, “Substituted Sulfonamide Compounds” (GRUENENTHAL GmbH, priority 2008, published 2009).

For test [1], the target named is T1, B1R receptor of the rat (rB1R) (Rattus norvegicus, UniProt P97583).
T1 construct: host or cells: CHO K1 cells
T1 sequence (P97583 1-337): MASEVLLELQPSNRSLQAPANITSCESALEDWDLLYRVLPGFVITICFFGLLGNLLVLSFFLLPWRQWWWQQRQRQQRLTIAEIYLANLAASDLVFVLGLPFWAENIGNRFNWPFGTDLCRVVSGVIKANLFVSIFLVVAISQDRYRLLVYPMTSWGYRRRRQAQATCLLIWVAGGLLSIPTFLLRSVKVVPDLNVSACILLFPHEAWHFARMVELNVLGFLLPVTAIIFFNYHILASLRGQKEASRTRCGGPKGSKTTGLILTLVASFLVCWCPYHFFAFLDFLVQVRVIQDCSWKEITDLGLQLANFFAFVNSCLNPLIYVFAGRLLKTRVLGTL
In words: FLIPR Ca2+ assay on rB1R-transfected CHO K1 cells, antagonistic action. Type of test: cell-based. The note with it: CHO-K1, 10 μM test substance; agonist Des-Arg9-bradykinin 100 nM; % of maximum achievable inhibition; read-out: rB1R [10 μM] % inhibition.

In test [2] the target is T2, human B1R receptor (hB1R) (Homo sapiens, UniProt P46663).
T2 construct: host or cells: CHO K1 cells
T2 sequence (P46663 1-353): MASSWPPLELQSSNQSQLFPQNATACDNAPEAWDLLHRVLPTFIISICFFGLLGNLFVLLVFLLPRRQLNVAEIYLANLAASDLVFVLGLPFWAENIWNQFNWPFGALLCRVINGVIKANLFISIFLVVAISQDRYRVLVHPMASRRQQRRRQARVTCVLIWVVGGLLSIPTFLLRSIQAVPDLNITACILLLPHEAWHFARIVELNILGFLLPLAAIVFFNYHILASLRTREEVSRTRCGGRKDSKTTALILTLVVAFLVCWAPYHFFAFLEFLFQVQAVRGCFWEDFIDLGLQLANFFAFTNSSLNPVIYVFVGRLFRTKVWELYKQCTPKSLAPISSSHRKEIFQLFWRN
Kind of test: FLIPR Ca2+ assay on hB1R-transfected CHO K1 cells, antagonistic action. Type of test: cell-based. The note with it: CHO-K1, 10 μM test substance; agonist Lys-Des-Arg9-bradykinin 0.5 nM; % of maximum achievable inhibition; read-out: hB1R [10 μM] % inhibition.

On to `Cc1cc(S(=O)(=O)N2CCCCC2CCC(=O)N2CCC(c3cccc(F)c3)(N3CCN(C)CC3)CC2)c(C)cc1Cl` (centres unmarked) [Compound 135, 3-(1-(4-chloro-2,5-dimethylphenylsulfonyl)piperidin-2-yl)-1-(4-(3-fluorophenyl)-4-(4-methylpiperazin-1-yl)piperidin-1-yl)propan-1-one], for which the values for the inhibition at 10 µM in test [1] and in test [2] were 37% and 104%, respectively.

Take `COc1cc(C)c(S(=O)(=O)N(C)CCOCC(=O)NC2CCC(CCc3ccccc3)(N(C)C)CC2)c(C)c1` (centres unmarked) [Compound 7, N-(4-(dimethylamino)-4-phenethylcyclohexyl)-2-(2-(4-methoxy-N,2,6-trimethylphenylsulfonamido)ethoxy)acetamide]: the results for the inhibition at 10 µM in test [1] and in test [2] were 100% and 103%, respectively.

For the compound `CN(CCC1CCC(CCc2ccccc2)(N(C)C)CC1)C(=O)CC1CCCCN1S(=O)(=O)c1cccc(C(F)(F)F)c1` (centres unmarked) [Compound 76, N-(2-(4-(dimethylamino)-4-phenethylcyclohexyl)ethyl)-N-methyl-2-(1-(3-(trifluoromethyl)phenylsulfonyl)piperidin-2-yl)acetamide], the values for the inhibition at 10 µM in test [1] and in test [2] were 99% and 98%, respectively.

As to `CN(CCC1CCC(c2ccccc2)(N(C)C)CC1)C(=O)CC1CCCCN1S(=O)(=O)c1cccc(C(F)(F)F)c1` (centres unmarked) [Compound 125, N-(2-(4-(dimethylamino)-4-phenylcyclohexyl)ethyl)-N-methyl-2-(1-(3-(trifluoromethyl)phenylsulfonyl)piperidin-2-yl)acetamide], the inhibition at 10 µM in test [1] stood at 56%; in test [2], 98%.

As for `CN(CCC1CCC(Cc2ccccc2)(N2CCCC2)CC1)C(=O)CC(NS(=O)(=O)c1ccc2ccccc2c1)c1ccccc1` (centres unmarked) [Compound 56, N-(2-(4-benzyl-4-(pyrrolidin-1-yl)cyclohexyl)ethyl)-N-methyl-3-(naphthalene-2-sulfonamido)-3-phenylpropanamide], the inhibition at 10 µM in test [1] amounted to 100%; in test [2] it was 101%.

On to `CN1CCN(C2(c3cccc(F)c3)CCN(C(=O)COCC3CCc4ccccc4N3S(=O)(=O)c3ccc(Cl)c(Cl)c3)CC2)CC1` (centres unmarked) [Compound 103, 2-((1-(3,4-dichlorophenylsulfonyl)-1,2,3,4-tetrahydroquinolin-2-yl)methoxy)-1-(4-(3-fluorophenyl)-4-(4-methylpiperazin-1-yl)piperidin-1-yl)ethanone], for which the inhibition at 10 µM in test [1] amounted to 82%; in test [2] it was 73%.

In the case of `COc1cc(C)c(S(=O)(=O)N2CCCCC2COCC(=O)N2CCC(c3ccccc3)(N3CCN(c4ccncc4)CC3)CC2)c(C)c1` (centres unmarked) [Compound 62, 2-((1-(4-methoxy-2,6-dimethylphenylsulfonyl)piperidin-2-yl)methoxy)-1-(4-phenyl-4-(4-(pyridin-4-yl)piperazin-1-yl)piperidin-1-yl)ethanone], the inhibition at 10 µM in test [1] is 100%; in test [2] it was 103%.

For the compound `CN(CC1CCC(CCc2ccccc2)(N2CCCC2)CC1)C(=O)CC1CCCCN1S(=O)(=O)c1cccc(C(F)(F)F)c1` (centres unmarked) [Compound 38, N-methyl-N-((4-phenethyl-4-(pyrrolidin-1-yl)cyclohexyl)methyl)-2-(1-(3-(trifluoromethyl)phenylsulfonyl)piperidin-2-yl)acetamide], the values for the inhibition at 10 µM in test [1] and in test [2] were 101% and 98%, respectively.

On to `COc1cc(C)c(S(=O)(=O)N2CCCCC2COCC(=O)N(C)CC2CCC(c3ccccc3)(N3CCCC3)CC2)c(C)c1` (centres unmarked) [Compound 66, 2-((1-(4-methoxy-2,6-dimethylphenylsulfonyl)piperidin-2-yl)methoxy)-N-methyl-N-((4-phenyl-4-(pyrrolidin-1-yl)cyclohexyl)methyl)acetamide], for which the results for the inhibition at 10 µM in test [1] and in test [2] were 100% and 102%, respectively.

Regarding `CN(CCC1CCC(CCc2ccccc2)(N2CCCC2)CC1)C(=O)CC(NS(=O)(=O)c1ccc2ccccc2c1)c1ccccc1` (centres unmarked) [Compound 114, N-methyl-3-(naphthalene-2-sulfonamido)-N-(2-(4-phenethyl-4-(pyrrolidin-1-yl)cyclohexyl)ethyl)-3-phenylpropanamide], the results for the inhibition at 10 µM in test [1] and in test [2] were 73% and 96%, respectively.

For `COc1cc(C)c(S(=O)(=O)N(CCOCC(=O)N2CCC(c3cccc(F)c3)(N3CCN(C)CC3)CC2)Cc2ccccc2)c(C)c1` [Compound 218, N-Benzyl-N-(2-(2-(4-(3-fluorophenyl)-4-(4-methylpiperazin-1-yl)piperidin-1-yl)-2-oxoethoxy)ethyl)-4-methoxy-2,6-dimethylbenzenesulfonamide], the inhibition at 10 µM in test [1] turned out to be 101%.

Consider `COc1cc(C)c(S(=O)(=O)N2CCCCC2CCOCC(=O)N2CCC(c3cccc(F)c3)(N3CCN(C)CC3)CC2)c(C)c1` (centres unmarked) [Compound 227, 1-(4-(3-Fluorophenyl)-4-(4-methylpiperazin-1-yl)piperidin-1-yl)-2-(2-(1-(4-methoxy-2,6-dimethylphenylsulfonyl)piperidin-2-yl)ethoxy)ethanone], for which the inhibition at 10 µM in test [1] was 99%; in test [2], 100%.

In the case of `COc1cc(C)c(S(=O)(=O)N2CCCCC2COCC(=O)N(C)CCC2CCC(Cc3ccccc3)(N3CCCC3)CC2)c(C)c1` (centres unmarked) [Compound 68, N-(2-(4-benzyl-4-(pyrrolidin-1-yl)cyclohexyl)ethyl)-2-((1-(4-methoxy-2,6-dimethylphenylsulfonyl)piperidin-2-yl)methoxy)-N-methylacetamide], the inhibition at 10 µM came out at 100% in test [1] and 103% in test [2].

For the compound `CN1CCN(C2(c3ccccc3)CCN(C(=O)COCC3CCc4ccccc4N3S(=O)(=O)c3ccc(Cl)c(Cl)c3)CC2)CC1` (centres unmarked) [Compound 115, 2-((1-(3,4-dichlorophenylsulfonyl)-1,2,3,4-tetrahydroquinolin-2-yl)methoxy)-1-(4-(4-methylpiperazin-1-yl)-4-phenylpiperidin-1-yl)ethanone], the values for the inhibition at 10 µM in test [1] and in test [2] were 72% and 71%, respectively.

Turning to `Cc1cc(S(=O)(=O)N2CCCCC2CCC(=O)N(C)CCC2CCC(c3ccccc3)(N3CCCC3)CC2)c(C)cc1Cl` (centres unmarked) [Compound 139, 3-(1-(4-chloro-2,5-dimethylphenylsulfonyl)piperidin-2-yl)-N-methyl-N-(2-(4-phenyl-4-(pyrrolidin-1-yl)cyclohexyl)ethyl)propanamide], the inhibition at 10 µM in test [1] was found to be 24%; in test [2], 105%.

For `CN(CCC1CCC(CCc2ccccc2)(N(C)C)CC1)C(=O)COCC1CCc2ccccc2N1S(=O)(=O)c1ccc(Cl)c(Cl)c1` (centres unmarked) [Compound 101, 2-((1-(3,4-dichlorophenylsulfonyl)-1,2,3,4-tetrahydroquinolin-2-yl)methoxy)-N-(2-(4-(dimethylamino)-4-phenethylcyclohexyl)ethyl)-N-methylacetamide], the figures for the inhibition at 10 µM in test [1] and in test [2] were 88% and 99%, respectively.

As to `COc1cc(C)c(S(=O)(=O)N2CCCC(OCC(=O)NC3CCC(Cc4ccccc4)(N4CCOCC4)CC3)C2)c(C)c1` (centres unmarked) [Compound 190, N-(4-benzyl-4-morpholinocyclohexyl)-2-(1-(4-methoxy-2,6-dimethylphenylsulfonyl)piperidin-3-yloxy)acetamide], the values for the inhibition at 10 µM in test [1] and in test [2] were 57% and 90%, respectively.

For the compound `COc1cc(C)c(S(=O)(=O)N2CCCC2COCC(=O)N(C)CC2CCC(CCc3ccccc3)(N3CCN(C)CC3)CC2)c(C)c1` (centres unmarked) [Compound 148, 2-((1-(4-methoxy-2,6-dimethylphenylsulfonyl)pyrrolidin-2-yl)methoxy)-N-methyl-N-((4-(4-methylpiperazin-1-yl)-4-phenethylcyclohexyl)methyl)acetamide], the inhibition at 10 µM in test [1] stood at 106%; in test [2], 102%.

Consider `COc1cc(C)c(S(=O)(=O)N(C)CCOCC(=O)N2CCC(c3cccc(F)c3)(N3CCN(C)CC3)CC2)c(C)c1C` [Compound 224, N-(2-(2-(4-(3-Fluorophenyl)-4-(4-methylpiperazin-1-yl)piperidin-1-yl)-2-oxoethoxy)ethyl)-4-methoxy-N,2,3,6-tetramethylbenzenesulfonamide], for which, in test [1], the inhibition at 10 µM was 100%.

As for `COc1cc(C)c(S(=O)(=O)N2c3ccccc3CCC2COCC(=O)N2CCC(c3cccc(F)c3)(N3CCN(C)CC3)CC2)c(C)c1` (centres unmarked) [Compound 220, 1-(4-(3-Fluorophenyl)-4-(4-methylpiperazin-1-yl)piperidin-1-yl)-2-((1-(4-methoxy-2,6-dimethylphenylsulfonyl)-1,2,3,4-tetrahydroquinolin-2-yl)methoxy)ethanone], the inhibition at 10 µM in test [1] worked out at 97%.

Regarding `COc1cc(C)c(S(=O)(=O)N(CCOCC(=O)N2CCC(c3cccc(F)c3)(N3CCN(C)CC3)CC2)c2ccccc2)c(C)c1` [Compound 219, N-(2-(2-(4-(3-Fluorophenyl)-4-(4-methylpiperazin-1-yl)piperidin-1-yl)-2-oxoethoxy)ethyl)-4-methoxy-2,6-dimethyl-N-phenylbenzenesulfonamide], in test [1], the inhibition at 10 µM worked out at 61%.
